Source: patent US9758459B2, “Allosteric modulators of factor XIa as anticoagulant agents” (VIRGINIA COMMONWEALTH UNIVERSITY, priority 2012, dated 2017)
Where “and” joins values, the source holds several entries; their conditions need not be identical. Equal values may be shown once. Read-outs that look alike come from different tables or passages of the source.

Tests used:
human FXIa [1] = biological target: T1, human FXIa (Homo sapiens, UniProt P03951); experiment: Inhibition of FXIa by SPGG in the presence of UFH (competition); assay type: biochemical
T1 construct: purchased Haematologic Technologies (Essex Junction, Vt.); host or cells: human plasma
Description: Solvent A consisted of 25 mM n-hexylamine in water containing 0.1% (v/v) formic acid, while solvent B consisted of 25 mM n-hexylamine in acetonitrile-water mixture (3:1 v/v) containing 0.1% (v/v) formic acid. […] The sample was first monitored for absorbance in the range of 190-400 nm and then directly introduced into the mass spectrometer. ESI-MS detection was performed in positive ion mode for which the capillary voltage was 4 kV, cone voltage was 20 V, desolvation temperature was 350° C. and nitrogen gas flow was maintained at 650 L/hr. Mass scans were collected in the range of 1000-2048 amu within 0.25 s and several of these added to enhanced signal-to-noise ratio. Direct Inhibition of Factor XIa. […] After 10 min incubation, 5 μL factor XIa substrate (345 μM) was rapidly added and the residual FXIa activity was measured from the initial rate of increase in absorbance at 405 nm. […] Relative residual FXIa activity at each concentration of the inhibitor was calculated from the ratio of FXIa activity in the presence and absence of the inhibitor. Logistic equation 1 was used to fit the dose-dependence of residual protease activity to obtain the potency (IC50) and efficacy (ΔY) of inhibition.
A more quantitative test of competitive binding is the Dixon-Webb relationship, which predicts the effect of an ideal competitor on a measured parameter, e.g. KD or IC50.

human FXIa [2] = biological target: T1, human FXIa; experiment: Inhibition of FXIa activation of FIX, Western blotting; assay type: biochemical
Description: (§1) Plasma FIX (500 nM) was incubated with human FXIa (3 nM) in 50 mM Hepes buffer, pH 7.4, containing 125 mM NaCl, 5 mM CaCl2, and 0.1 mg/mL bovine serum albumin at 24° C. […] The primary antibody was goat anti-human FIX polyclonal IgG (Enzyme Research Laboratories, South Bend, Tenn.), and the secondary antibody was horseradish peroxidase-conjugated anti-goat IgG. Detection was by chemiluminescence. […] The inhibition profile was determined over a range of inhibitor concentrations to determine the IC50 of the enzyme-inhibitor complex. The KM of the substrate for its enzyme was used to identify the concentration of the substrate to be used for inhibition studies. […] Active site concentrations for preparations of FXIa were determined by titrations with human antithrombin in an S-2366 cleavage assay. The reaction was monitored using a SpectraMax 340 microtiter plate reader (Molecular Devices Corp., Sunnyvale, Calif.) with a reaction volume of 100 μL and path length of 3 mm. Each assay was performed in triplicate. The concentration of S-2366 was measured using an absorption coefficient of 8,266 M-1cm-1 at λ342 nm, while the free p-nitroaniline concentration was calculated using an absorption coefficient of 9,933 M cm^−1 at λ405 nm. The data was fitted using the standard Michaelis-Menten equation to determine the KM and VMAX. Results

thrombin = biological target: T2, thrombin (Homo sapiens, UniProt P00734); experiment: Thrombin chromogenic substrate hydrolysis assay; assay type: biochemical
T2 construct: purchased Haematologic Technologies (Essex Junction, Vt.); host or cells: human plasma
Description: as §1
Inhibition of Proteases of the Coagulation and Digestive Systems by 16S. The inhibition potential of 500 μM SAM (16S, 15S, 13S) against coagulation enzymes including thrombin and factor Xa and digestive enzymes including trypsin and chymotrypsin was evaluated using chromogenic substrate hydrolysis assays reported in the literature.^2,3,6 These assays were performed using substrates appropriate for the enzyme being studied under conditions closest to the physiological condition (37° C. and pH 7.4), except for thrombin, which was performed at 25° C. and pH 7.4. The concentrations of enzymes and substrates in microplate wells, respectively, were: 6 nM and 50 μM for thrombin; 1.09 nM and 125 μM for factor Xa, 2.5 ng/ml and 80 μM for bovine trypsin; and 500 ng/ml and 240 μM for bovine chymotrypsin. The ratio of the proteolytic activity of an enzyme in the presence of the sulfated QAO to that in its absence was used to calculate percent inhibition (%).

C57Bl/6 mice = experiment: FeCl3 carotid artery thrombosis model; assay type: in vivo
Description: Exposure of the carotid artery of C57Bl/6 mice to FeCl3 (either 3.5% or 5.0%) results in formation of an occlusive platelet-rich thrombus within 15 minute.

factor IXa = biological target: T3, factor IXa (Homo sapiens, UniProt P00740); experiment: Factor IXa chromogenic substrate hydrolysis assay; assay type: biochemical
T3 construct: purchased Haematologic Technologies (Essex Junction, Vt.); host or cells: human plasma

[3] = biological target: T4, FXIa catalytic domain (FXIa-CD) (Homo sapiens, UniProt P03951, C500S); experiment: Michaelis-Menten kinetics of S-2366 hydrolysis by FXIa catalytic domain; assay type: biochemical
T4 construct: eliminating the bond allows the catalytic domain of FXIa (FXIa-CD) to separate from the heavy chain; made in house; host or cells: HEK-293
Description: as §1

FXIa wild type (FXIa-WT) = biological target: T5, FXIa wild type (FXIa-WT) (Homo sapiens, UniProt P03951); experiment: Michaelis-Menten kinetics of S-2366 hydrolysis by full-length factor XIa; assay type: biochemical
T5 construct: made in house; host or cells: HEK-293
Description: as §1

T3 sequence (P00740 227-461 limits assumed): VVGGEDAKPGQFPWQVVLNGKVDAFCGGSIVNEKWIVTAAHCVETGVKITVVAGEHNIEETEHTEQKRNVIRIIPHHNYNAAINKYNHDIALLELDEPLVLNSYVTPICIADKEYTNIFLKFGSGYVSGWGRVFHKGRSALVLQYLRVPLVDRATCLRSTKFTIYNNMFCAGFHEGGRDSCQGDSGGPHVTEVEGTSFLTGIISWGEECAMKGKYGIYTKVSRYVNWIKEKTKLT
T3 sequence (P00740 47-191 partner limits assumed): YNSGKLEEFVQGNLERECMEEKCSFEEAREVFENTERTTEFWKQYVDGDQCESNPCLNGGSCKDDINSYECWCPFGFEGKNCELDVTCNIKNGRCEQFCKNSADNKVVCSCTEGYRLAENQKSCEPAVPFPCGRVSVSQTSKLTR
T4 sequence (P03951 388-625 C500S): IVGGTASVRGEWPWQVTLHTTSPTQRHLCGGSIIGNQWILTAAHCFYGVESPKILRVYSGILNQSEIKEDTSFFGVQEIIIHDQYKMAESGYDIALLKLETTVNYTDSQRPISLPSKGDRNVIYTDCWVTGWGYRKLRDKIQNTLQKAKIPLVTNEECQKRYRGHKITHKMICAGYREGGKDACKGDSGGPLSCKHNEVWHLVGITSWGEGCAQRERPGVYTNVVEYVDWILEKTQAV
T1 sequence (P03951 19-387 limits assumed): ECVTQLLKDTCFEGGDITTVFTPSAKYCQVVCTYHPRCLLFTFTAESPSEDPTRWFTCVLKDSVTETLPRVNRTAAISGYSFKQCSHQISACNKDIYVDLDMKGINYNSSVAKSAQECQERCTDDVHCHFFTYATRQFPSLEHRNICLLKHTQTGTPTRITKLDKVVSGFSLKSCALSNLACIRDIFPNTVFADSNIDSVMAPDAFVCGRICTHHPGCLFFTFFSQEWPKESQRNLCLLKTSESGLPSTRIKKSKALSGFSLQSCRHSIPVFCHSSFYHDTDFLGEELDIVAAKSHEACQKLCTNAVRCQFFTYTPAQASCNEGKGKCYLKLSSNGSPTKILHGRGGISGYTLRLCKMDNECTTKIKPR
T1 sequence (P03951 388-625 limits assumed): as the sequence (P03951 388-625 C500S) above, with S113C counted along it
T5 sequence (P03951 19-387 limits assumed): as the sequence (P03951 19-387 limits assumed) above
T5 sequence (P03951 388-625 limits assumed): as the sequence (P03951 388-625 C500S) above, with S113C counted along it

SMILES: O=C(OC[C@H]1O[C@@H](OC(=O)c2cc(OS(=O)(=O)O)c(O)c(OS(=O)(=O)O)c2)[C@H](OC(=O)c2cc(OS(=O)(=O)O)c(O)c(OS(=O)(=O)O)c2)[C@@H](OC(=O)c2cc(OS(=O)(=O)O)c(O)c(OS(=O)(=O)O)c2)[C@@H]1OC(=O)c1cc(OS(=O)(=O)O)c(O)c(OS(=O)(=O)O)c1)c1cc(OS(=O)(=O)O)c(O)c(OS(=O)(=O)O)c1 [SPGG, Sulfated Pentagalloylglucoside]
- HS (human FXIa [1]; UFH 0 μM): 1.3 ± 0.1
- ΔY (human FXIa [1]; UFH 0 μM): 97.1 ± 3.2
- IC50 (human FXIa [1]; UFH 0 μM, Dixon-Webb equation, read-out: IC50, predicted (converted)): 0.689 µM
- HS (human FXIa [1]; UFH 3.33 μM): 1.7 ± 0.2
- ΔY (human FXIa [1]; UFH 3.33 μM): 92.7 ± 6.4
- IC50 (human FXIa [1]; UFH 3.33 μM, Dixon-Webb equation, read-out: IC50, predicted (converted)): 2.24 µM
- IC50 (human FXIa [1]; UFH 3.33 μM, pH 7.4, 37° C., read-out: IC50 (converted)): 4.02 µM
- HS (human FXIa [1]; UFH 33.3 μM): 4.0 ± 0.9
- ΔY (human FXIa [1]; UFH 33.3 μM): 58.2 ± 6.6
- IC50 (human FXIa [1]; UFH 33.3 μM, pH 7.4, 37° C., read-out: IC50 (converted)): 18 µM and 17.8 µM
- IC50 (human FXIa [1]; UFH […], Dixon-Webb equation, read-out: IC50, predicted (converted)): 0.747 µM
- formation of FIXαβ (human FXIa [2]; 3 μM SPGG, FIX 0.5 μM, after 120 min of incubation): not detectable
- inhibition at 3 µM (human FXIa [2]; read-out: efficacy of inhibition of FIX activation by FXIa): ~100%
- HS (thrombin): 0.5 ± 0.1
- IC50 (thrombin): 700 µM
- ΔY (thrombin): 83 ± 10
- selectivity over thrombin (thrombin; FXIa vs thrombin): 1016 fold
- arteries in which thrombosis was prevented (C57Bl/6 mice; 3.5% FeCl3, doses of 0.025 to 0.2 mg injected 10 min before FeCl3): ~100%
- protection of vessels from occlusion (C57Bl/6 mice; 5.0% FeCl3, dose of 0.2 mg): protected all vessels from occlusion
- HS (factor IXa): 2.2 ± 0.6
- IC50 (factor IXa): 655 µM
- ΔY (factor IXa): 100.6 ± 5.8
- selectivity over factor IXa (factor IXa; FXIa vs factor IXa): 950 fold
- decrease in VMAX ([3]; SPGG 0 to 5.0 μg/mL): ~5 fold
- VMAX ([3]; [SPGG] 0.005 μg/mL): 87.0 ± 2.2 mAU/min
- VMAX ([3]; [SPGG] 0.5 μg/mL): 53.9 ± 1.4 mAU/min
- VMAX ([3]; [SPGG] 5.0 μg/mL): 22.6 mAU/min and 22.6 ± 1.4 mAU/min
- VMAX (FXIa wild type (FXIa-WT); [SPGG] 0.005 μg/mL): 93.7 ± 3.2 mAU/min
- VMAX (FXIa wild type (FXIa-WT); [SPGG] 0.5 μg/mL): 74.6 ± 2.6 mAU/min
- VMAX (FXIa wild type (FXIa-WT); [SPGG] 5.0 μg/mL): 32.3 ± 2.1 mAU/min
- VMAX (FXIa wild type (FXIa-WT); [SPGG] 50.0 μg/mL): 17.2 mAU/min and 17.2 ± 1.2 mAU/min
- VMAX (FXIa wild type (FXIa-WT); [SPGG] […]): 56.9 ± 1.5 mAU/min
